From PubChem BioAssay AID328 (DTP/NCI, 2004)
Where “and” joins values, the source holds several entries; their conditions need not be identical. Equal entries are not always repeated. Toxic doses and inconclusive results are not listed.

Test system: BDF1 mice, P388 leukemia ip, median survival T/C
Test: NCI In Vivo Anticancer Drug Screen. Data for tumor model P388 Leukemia (intraperitoneal) in B6D2F1 (BDF1) mice
Settings: endpoint: median survival time, higher = longer survival
How it was run: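 Reported as T/C, where T is the survival measurement in dosed animals and C the same measurement in vehicle controls.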

[1] = dose: 50.0 mg/kg/injection, schedule: Q01DX009 (ip), vehicle: saline with Tween-80
[2] = dose: 100.0 mg/kg/injection, schedule: Q01DX009 (ip), vehicle: saline with Tween-80
[3] = dose: 100.0 mg/kg/injection, schedule: Q04DX003 (ip), vehicle: Klucel (hydroxypropylcellulose) (HPC)
[4] = dose: 200.0 mg/kg/injection, schedule: Q04DX003 (ip), vehicle: Klucel (hydroxypropylcellulose) (HPC)
[5] = dose: 100.0 mg/kg/injection, schedule: Q01DX009 (ip), vehicle: Klucel (hydroxypropylcellulose) (HPC)
[6] = dose: 200.0 mg/kg/injection, schedule: Q01DX009 (ip), vehicle: Klucel (hydroxypropylcellulose) (HPC)
[7] = dose: 400.0 mg/kg/injection, schedule: Q01DX009 (ip), vehicle: Klucel (hydroxypropylcellulose) (HPC)
[8] = dose: 100.0 mg/kg/injection, schedule: Q04DX003 (ip), vehicle: saline with Tween-80
[9] = dose: 200.0 mg/kg/injection, schedule: Q04DX003 (ip), vehicle: saline with Tween-80
[10] = dose: 400.0 mg/kg/injection, schedule: Q04DX003 (ip), vehicle: saline with Tween-80

SMILES: COc1cc2cc(c1Cl)N(C)C(=O)CC(OC(=O)C(F)(F)F)C1(C)OC1C(C)C1CC(O)(NC(=O)O1)C(OC)C=C/C=C(\C)C2 (centres undefined)
- T/C (dose: 0.8 micrograms/kg/injection, schedule: Q01DX009 (ip), vehicle: saline + alcohol): 110 % of control
- T/C (dose: 1.5 micrograms/kg/injection, schedule: Q01DX009 (ip), vehicle: saline + alcohol): 100 % of control
- T/C (dose: 1.8 micrograms/kg/injection, schedule: Q01DX009 (ip), vehicle: saline + alcohol): 107 % of control
- T/C (dose: 3.1 micrograms/kg/injection, schedule: Q01DX009 (ip), vehicle: saline + alcohol): 98 % of control and 100 % of control
- T/C (dose: 6.2 micrograms/kg/injection, schedule: Q01DX009 (ip), vehicle: saline + alcohol): 98 % of control and 108 % of control
- T/C (dose: 12.5 micrograms/kg/injection, schedule: Q01DX009 (ip), vehicle: saline + alcohol): 96 % of control and 120 % of control
- T/C (dose: 25.0 micrograms/kg/injection, schedule: Q01DX009 (ip), vehicle: saline + alcohol): 96 % of control
- T/C (dose: 50.0 micrograms/kg/injection, schedule: Q01DX009 (ip), vehicle: saline + alcohol): 107 % of control
- T/C (dose: 100.0 micrograms/kg/injection, schedule: Q01DX009 (ip), vehicle: saline + alcohol): 91 % of control and 108 % of control
- T/C (dose: 200.0 micrograms/kg/injection, schedule: Q01DX009 (ip), vehicle: saline + alcohol): 91 % of control
- T/C (dose: 400.0 micrograms/kg/injection, schedule: Q01DX009 (ip), vehicle: saline + alcohol): 117 % of control

SMILES: Clc1cc(CBr)c(CBr)cc1Cl
- T/C (dose: 12.5 mg/kg/injection, schedule: Q01DX009 (ip), vehicle: saline with Tween-80): 100 % of control

SMILES: COc1cc2nccc3c4ccccc4n(c1=O)c23
- T/C (dose: 100.0 mg/kg/injection, schedule: Q01DX010 (ip), vehicle: saline): 90 % of control
- T/C (dose: 200.0 mg/kg/injection, schedule: Q01DX010 (ip), vehicle: saline): 90 % of control
- T/C (dose: 400.0 mg/kg/injection, schedule: Q01DX010 (ip), vehicle: saline): 95 % of control
- T/C (dose: 800.0 mg/kg/injection, schedule: Q01DX010 (ip), vehicle: saline): 100 % of control

SMILES: NC1C(O)C(O)C(Nc2ncnc3nc[nH]c23)OC1C(O)CO (centres undefined)
- T/C (dose: 1.5 mg/kg/injection, schedule: Q01DX010 (ip), vehicle: saline): 105 % of control
- T/C (dose: 3.0 mg/kg/injection, schedule: Q01DX010 (ip), vehicle: saline): 105 % of control
- T/C (dose: 6.0 mg/kg/injection, schedule: Q01DX010 (ip), vehicle: saline): 100 % of control
- T/C (dose: 12.0 mg/kg/injection, schedule: Q01DX010 (ip), vehicle: saline): 95 % of control
- T/C (dose: 24.0 mg/kg/injection, schedule: Q01DX010 (ip), vehicle: saline): 110 % of control
- T/C (dose: 48.0 mg/kg/injection, schedule: Q01DX010 (ip), vehicle: saline): 105 % of control

SMILES: C=Cn1ccnc1C.C=Cn1ccnc1C.CC(=O)CC(C)=O.CC(=O)CC(C)=O.[Ni]
- T/C (dose: 12.5 mg/kg/injection, schedule: Q04DX002 (ip), vehicle: saline): 119 % of control
- T/C (dose: 25.0 mg/kg/injection, schedule: Q04DX002 (ip), vehicle: saline): 117 % of control
- T/C (dose: 50.0 mg/kg/injection, schedule: Q04DX002 (ip), vehicle: saline): 112 % of control

SMILES: S=C(Nc1ccccc1)NC1CCCCCC1
- T/C (dose: 75.0 mg/kg/injection, schedule: Q04DX003 (ip), vehicle: Klucel (hydroxypropylcellulose) (HPC)): 90 % of control
- T/C (dose: 150.0 mg/kg/injection, schedule: Q04DX003 (ip), vehicle: Klucel (hydroxypropylcellulose) (HPC)): 100 % of control
- T/C (dose: 300.0 mg/kg/injection, schedule: Q04DX003 (ip), vehicle: Klucel (hydroxypropylcellulose) (HPC)): 110 % of control

SMILES: Cc1ccc(Cl)cc1O
- T/C [1]: 100 % of control
- T/C [2]: 96 % of control
- T/C (dose: 200.0 mg/kg/injection, schedule: Q04DX003 (ip), vehicle: saline + alcohol): 104 % of control
- T/C (dose: 300.0 mg/kg/injection, schedule: Q04DX003 (ip), vehicle: saline + alcohol): 104 % of control
- T/C (dose: 450.0 mg/kg/injection, schedule: Q04DX003 (ip), vehicle: saline + alcohol): 91 % of control

SMILES: NC(=O)NN=C1COC(c2ccccc2)OC1 (centres undefined)
- T/C (dose: 50.0 mg/kg/injection, schedule: Q01DX009 (ip), vehicle: saline): 110 % of control
- T/C (dose: 100.0 mg/kg/injection, schedule: Q01DX009 (ip), vehicle: saline): 110 % of control
- T/C (dose: 100.0 mg/kg/injection, schedule: Q04DX003 (ip), vehicle: saline): 116 % of control
- T/C (dose: 200.0 mg/kg/injection, schedule: Q01DX009 (ip), vehicle: saline): 91 % of control
- T/C (dose: 200.0 mg/kg/injection, schedule: Q04DX003 (ip), vehicle: saline): 104 % of control

SMILES: CC(C)Cc1c(N)nc(=O)[nH]c1C(=O)O
- T/C (dose: 50.0 mg/kg/injection, schedule: Q04DX003 (ip), vehicle: Klucel (hydroxypropylcellulose) (HPC)): 109 % of control
- T/C [3]: 95 % of control
- T/C [4]: 100 % of control

SMILES: CN(CCCCN(C)CCOS(C)(=O)=O)CCOS(C)(=O)=O
- T/C (dose: 0.8 mg/kg/injection, schedule: Q04DX003 (ip), vehicle: saline): 177 % of control
- T/C (dose: 1.2 mg/kg/injection, schedule: Q04DX003 (ip), vehicle: saline): 172 % of control
- T/C (dose: 1.8 mg/kg/injection, schedule: Q04DX003 (ip), vehicle: saline): 154 % of control

SMILES: COC(=O)/C=C/c1ccc(Cl)cc1
- T/C [5]: 95 % of control
- T/C [6]: 95 % of control
- T/C [7]: 91 % of control

SMILES: CCSSC(=Nc1ccccc1)OCC(C)C
- T/C (dose: 50.0 mg/kg/injection, schedule: Q01DX009 (ip), vehicle: other): 119 % of control

SMILES: C[S+](C)N(c1ccccc1)C(C)(C)C
- T/C (dose: 12.5 mg/kg/injection, schedule: Q04DX003 (ip), vehicle: saline with Tween-80): 99 % of control
- T/C (dose: 25.0 mg/kg/injection, schedule: Q04DX003 (ip), vehicle: saline with Tween-80): 104 % of control
- T/C (dose: 50.0 mg/kg/injection, schedule: Q04DX003 (ip), vehicle: saline with Tween-80): 89 % of control

SMILES: O=C(c1ccccc1)C1Cc2ccccc2C1=O (centres undefined)
- T/C (dose: 100.0 mg/kg/injection, schedule: Q01DX001 (ip), vehicle: Klucel (hydroxypropylcellulose) (HPC)): 100 % of control
- T/C [5]: 113 % of control
- T/C [3]: 100 % of control
- T/C (dose: 200.0 mg/kg/injection, schedule: Q01DX001 (ip), vehicle: Klucel (hydroxypropylcellulose) (HPC)): 100 % of control
- T/C [6]: 109 % of control
- T/C [4]: 100 % of control
- T/C (dose: 400.0 mg/kg/injection, schedule: Q01DX001 (ip), vehicle: Klucel (hydroxypropylcellulose) (HPC)): 95 % of control
- T/C [7]: 118 % of control
- T/C (dose: 400.0 mg/kg/injection, schedule: Q04DX003 (ip), vehicle: Klucel (hydroxypropylcellulose) (HPC)): 90 % of control

SMILES: CCc1ccc(NC(=O)c2ccccc2Cl)cc1
- T/C [8]: 100 % of control
- T/C [9]: 91 % of control
- T/C [10]: 91 % of control

SMILES: O=C(CSc1cc(-c2ccc(Cl)cc2)s[s+]1)c1ccccc1
- T/C [1]: 101 % of control
- T/C [2]: 109 % of control
- T/C [8]: 114 % of control
- T/C (dose: 200.0 mg/kg/injection, schedule: Q01DX009 (ip), vehicle: saline with Tween-80): 113 % of control
- T/C [9]: 114 % of control
- T/C (dose: 400.0 mg/kg/injection, schedule: Q01DX009 (ip), vehicle: saline with Tween-80): 113 % of control
- T/C [10]: 93 % of control

SMILES: N#CCc1cnc2nc(N)nc(N)c2n1
- T/C (dose: 3.13 mg/kg/injection, schedule: Q01DX009 (ip), vehicle: other): 102 % of control
- T/C (dose: 6.25 mg/kg/injection, schedule: Q01DX009 (ip), vehicle: other): 98 % of control
- T/C (dose: 12.5 mg/kg/injection, schedule: Q01DX009 (ip), vehicle: other): 107 % of control
- T/C (dose: 25.0 mg/kg/injection, schedule: Q01DX009 (ip), vehicle: other): 107 % of control
